Consider 15 molecules from patent publication US20240360178A1, “MACROCYCLIC IMMUNOMODULATORS” (Bristol-Myers Squibb Company, priority 2021, published 2024).

SMILES strings stand for the structures. Positions of bridges follow the written chain, without caps; N, C: chain ends. Non-standard residues stand in square brackets, D forms with d. Residues, ends and D or L forms follow the SMILES beside them. ξ: configuration not given here. *: point of attachment. Phe(4-CH2NH2) = NCc1ccc(C[C@H](N)C(=O)O)cc1; Bip = N[C@@H](Cc1ccc(-c2ccccc2)cc1)C(=O)O; NMeY = CN[C@@H](Cc1ccc(O)cc1)C(=O)O; NMeF = CN[C@@H](Cc1ccccc1)C(=O)O; hArg = N=C(N)NCCCC[C@H](N)C(=O)O; Cit = NC(=O)NCCC[C@H](N)C(=O)O; NMeL = CN[C@@H](CC(C)C)C(=O)O; Carboxymethyl = O=C(O)C*; NMeA = CN[C@@H](C)C(=O)O; Orn = NCCC[C@H](N)C(=O)O; Dab = NCC[C@H](N)C(=O)O; Dap = NC[C@H](N)C(=O)O; ξP = O=C(O)C1CCCN1

The target of this experiment is T1, human PD-1 (Jurkat-PD-1 cells) / PE-labeled human PD-L1-Ig (Homo sapiens, UniProt Q15116).
T1 construct: expressed in transfected cells; host or cells: Jurkat cell line over-expressing human PD-1
T1 sequence (Q15116 25-288): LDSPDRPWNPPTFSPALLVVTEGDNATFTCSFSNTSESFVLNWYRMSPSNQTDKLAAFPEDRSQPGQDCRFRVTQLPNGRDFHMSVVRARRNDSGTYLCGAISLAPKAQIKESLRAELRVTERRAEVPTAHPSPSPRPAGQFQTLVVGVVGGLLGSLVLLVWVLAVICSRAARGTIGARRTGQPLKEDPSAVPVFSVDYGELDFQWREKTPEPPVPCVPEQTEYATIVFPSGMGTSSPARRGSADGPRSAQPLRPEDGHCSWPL
The experiment is described as follows: Jurkat-PD-1 Cell Binding High-Content Screening Assay (CBA); Jurkat hPD1-PDL1 assay. The settings on record: Jurkat cell line over-expressing human PD-1; PE-labeled PD-L1-Ig 20 nM final; compound incubated 2 hours at 37° C.; read-out: Jurkat HPD1-PDL1 IC50. An outline of the steps: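 Cell binding by imaging: Jurkat line stably over-expressing human PD-1, compound pre-exposure 2 h at 37° C, PE-conjugated PD-L1-Ig 20 nM final, medium DMEM containing 10% FCS.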
`CC(C)C[C@@H]1NC(=O)[C@H](CCCNC(=N)N)NC(=O)[C@H](Cc2ccccc2)N(C)C(=O)[C@H](C)N(C)C(=O)[C@H](CCCNC(=N)N)NC(=O)[C@H](Cc2ccc(-c3ccccc3)cc2)NC(=O)[C@H](C(C)C)NC(=O)[C@H](Cc2c[nH]c3ccccc23)NC(=O)[C@H](CC(=O)O)NC(=O)[C@H](Cc2ccc(O)cc2)NC(=O)[C@H](CN)NC(=O)CSC[C@@H](C(=O)NCC(N)=O)NC(=O)[C@H](CO)NC(=O)[C@H](C(C)C)NC1=O` [Example 1264] ({CH2CO}-[Dap]YDWV[Bip]R[NMeA][NMeF]RLVSCG-NH2; thioether N-14): the IC50 is 0.16 µM.
Under `CC(C)C[C@@H]1NC(=O)[C@H](CCCNC(=N)N)NC(=O)[C@H](Cc2ccccc2)N(C)C(=O)[C@H](C)N(C)C(=O)[C@H](CCCNC(=N)N)NC(=O)[C@H](Cc2ccc(-c3ccccc3)cc2)NC(=O)[C@H](C(C)C)NC(=O)[C@H](Cc2c[nH]c3ccccc23)NC(=O)[C@H](CC(=O)O)NC(=O)[C@H](Cc2ccc(OCC(=O)O)cc2)NC(=O)[C@H](Cc2ccccc2)NC(=O)CSC[C@@H](C(=O)NCC(N)=O)NC(=O)[C@H](CO)NC(=O)[C@H](C(C)C)NC1=O` [Example 1275] ({CH2CO}-FY(Carboxymethyl)DWV[Bip]R[NMeA][NMeF]RLVSCG-NH2; thioether N-14) stands 0.03 µM; under `CC(C)C[C@@H]1NC(=O)[C@H](CCCNC(=N)N)NC(=O)[C@H](Cc2ccccc2)N(C)C(=O)[C@H](CCCNC(N)=O)NC(=O)[C@H](CCCNC(=N)N)NC(=O)[C@H](Cc2ccc(-c3ccccc3)cc2)NC(=O)[C@H](C(C)C)NC(=O)[C@H](Cc2c[nH]c3ccccc23)NC(=O)[C@H](CC(=O)O)NC(=O)[C@H](Cc2ccc(O)cc2)NC(=O)[C@H](Cc2ccccc2)NC(=O)CSC[C@@H](C(=O)NCC(N)=O)NC(=O)[C@H](CO)NC(=O)[C@H](C(C)C)NC1=O` [Example 1276] ({CH2CO}-FYDWV[Bip]R[Cit][NMeF]RLVSCG-NH2; thioether N-14), 0.84 µM; under `CC(C)C[C@@H]1NC(=O)[C@H](CCCNC(=N)N)NC(=O)[C@H](Cc2ccccc2)N(C)C(=O)[C@H](C)N(C)C(=O)[C@H](CCCNC(=N)N)NC(=O)[C@H](Cc2ccc(-c3ccccc3)cc2)NC(=O)[C@H](C(C)C)NC(=O)[C@H](Cc2c[nH]c3ccccc23)NC(=O)[C@H](CC(=O)O)NC(=O)[C@H](Cc2ccc(CN)cc2)NC(=O)[C@H](Cc2ccccc2)NC(=O)CSC[C@@H](C(=O)NCC(N)=O)NC(=O)[C@H](CO)NC(=O)[C@H](C(C)C)NC1=O` [Example 1277] ({CH2CO}-F[Phe(4-CH2NH2)]DWV[Bip]R[NMeA][NMeF]RLVSCG-NH2; thioether N-14), 0.14 µM.
Turning to `CC(C)C[C@@H]1NC(=O)[C@H](CCCN)NC(=O)[C@H](Cc2ccccc2)N(C)C(=O)[C@H](C)N(C)C(=O)[C@H](CCCNC(=N)N)NC(=O)[C@H](Cc2ccc(-c3ccccc3)cc2)NC(=O)[C@H](C(C)C)NC(=O)[C@H](Cc2c[nH]c3ccccc23)NC(=O)[C@H](CC(=O)O)NC(=O)[C@H](Cc2ccc(O)cc2)NC(=O)[C@H](Cc2ccccc2)NC(=O)CSC[C@@H](C(=O)NCC(N)=O)NC(=O)[C@H](CO)NC(=O)[C@H](C(C)C)NC1=O` [Example 1278] ({CH2CO}-FYDWV[Bip]R[NMeA][NMeF][Orn]LVSCG-NH2; thioether N-14), the IC50 turned out to be 0.31 µM.
As to `CC(C)C[C@@H]1NC(=O)[C@H](CCCCNC(=N)N)NC(=O)[C@H](Cc2ccccc2)N(C)C(=O)[C@H](C)N(C)C(=O)[C@H](CCCNC(=N)N)NC(=O)[C@H](Cc2ccc(-c3ccccc3)cc2)NC(=O)[C@H](C(C)C)NC(=O)[C@H](Cc2c[nH]c3ccccc23)NC(=O)[C@H](CC(=O)O)NC(=O)[C@H](Cc2ccc(O)cc2)NC(=O)[C@H](Cc2ccccc2)NC(=O)CSC[C@@H](C(=O)NCC(N)=O)NC(=O)[C@H](CO)NC(=O)[C@H](C(C)C)NC1=O` [Example 1279] ({CH2CO}-FYDWV[Bip]R[NMeA][NMeF][hArg]LVSCG-NH2; thioether N-14), the IC50 was 0.32 µM.
To `CC(C)C[C@@H]1NC(=O)[C@H](CCCNC(=N)N)NC(=O)[C@H](Cc2ccc(O)cc2)N(C)C(=O)[C@H](C)N(C)C(=O)[C@H](CCCNC(=N)N)NC(=O)[C@H](Cc2ccc(-c3ccccc3)cc2)NC(=O)[C@H](C(C)C)NC(=O)[C@H](Cc2c[nH]c3ccccc23)NC(=O)[C@H](CC(=O)O)NC(=O)[C@H](Cc2ccc(O)cc2)NC(=O)[C@H](Cc2ccccc2)NC(=O)CSC[C@@H](C(=O)NCC(N)=O)NC(=O)[C@H](CO)NC(=O)[C@H](C(C)C)NC1=O` [Example 1280] ({CH2CO}-FYDWV[Bip]R[NMeA][NMeY]RLVSCG-NH2; thioether N-14) belongs 0.5 µM; to `CC(C)C[C@@H]1NC(=O)[C@H](CCCNC(=N)N)NC(=O)[C@H](CC(C)C)N(C)C(=O)[C@H](C)N(C)C(=O)[C@H](CCCNC(=N)N)NC(=O)[C@H](Cc2ccc(-c3ccccc3)cc2)NC(=O)[C@H](C(C)C)NC(=O)[C@H](Cc2c[nH]c3ccccc23)NC(=O)[C@H](CC(=O)O)NC(=O)[C@H](Cc2ccc(O)cc2)NC(=O)[C@H](Cc2ccccc2)NC(=O)CSC[C@@H](C(=O)NCC(N)=O)NC(=O)[C@H](CO)NC(=O)[C@H](C(C)C)NC1=O` [Example 1281] ({CH2CO}-FYDWV[Bip]R[NMeA][NMeL]RLVSCG-NH2; thioether N-14), 0.46 µM.
Consider `CC(C)C[C@@H]1NC(=O)[C@H](CCCNC(=N)N)NC(=O)C2CCCN2C(=O)[C@H](C)N(C)C(=O)[C@H](CCCNC(=N)N)NC(=O)[C@H](Cc2ccc(-c3ccccc3)cc2)NC(=O)[C@H](C(C)C)NC(=O)[C@H](Cc2c[nH]c3ccccc23)NC(=O)[C@H](CC(=O)O)NC(=O)[C@H](Cc2ccc(O)cc2)NC(=O)[C@H](Cc2ccccc2)NC(=O)CSC[C@@H](C(=O)NCC(N)=O)NC(=O)[C@H](CO)NC(=O)[C@H](C(C)C)NC1=O` (stereo partly drawn) [Example 1282] ({CH2CO}-FYDWV[Bip]R[NMeA][ξP]RLVSCG-NH2; thioether N-14), for which the IC50 is 0.29 µM.
Consider `CC(C)C[C@@H]1NC(=O)[C@H](CCCNC(=N)N)NC(=O)[C@H](Cc2ccccc2)N(C)C(=O)[C@H](C)N(C)C(=O)[C@H](CCCNC(=N)N)NC(=O)[C@H](Cc2ccc(-c3ccccc3)cc2)NC(=O)[C@H]([C@@H](C)O)NC(=O)[C@H](Cc2c[nH]c3ccccc23)NC(=O)[C@H](CC(=O)O)NC(=O)[C@H](Cc2ccc(O)cc2)NC(=O)[C@H](Cc2ccccc2)NC(=O)CSC[C@@H](C(=O)NCC(N)=O)NC(=O)[C@H](CO)NC(=O)[C@H](C(C)C)NC1=O` [Example 1283] ({CH2CO}-FYDWT[Bip]R[NMeA][NMeF]RLVSCG-NH2; thioether N-14), for which the IC50 amounted to 0.7 µM.
To `CC[C@H](C)[C@@H]1NC(=O)[C@H](Cc2c[nH]c3ccccc23)NC(=O)[C@H](CC(=O)O)NC(=O)[C@H](Cc2ccc(O)cc2)NC(=O)[C@H](Cc2ccccc2)NC(=O)CSC[C@@H](C(=O)NCC(N)=O)NC(=O)[C@H](CO)NC(=O)[C@H](C(C)C)NC(=O)[C@H](CC(C)C)NC(=O)[C@H](CCCNC(=N)N)NC(=O)[C@H](Cc2ccccc2)N(C)C(=O)[C@H](C)N(C)C(=O)[C@H](CCCNC(=N)N)NC(=O)[C@H](Cc2ccc(-c3ccccc3)cc2)NC1=O` [Example 1284] ({CH2CO}-FYDWI[Bip]R[NMeA][NMeF]RLVSCG-NH2; thioether N-14) belongs 0.82 µM; to `CC(C)C[C@@H]1NC(=O)[C@H](CCCNC(=N)N)NC(=O)[C@H](Cc2ccccc2)N(C)C(=O)[C@H](C)N(C)C(=O)[C@H](CCC(=O)O)NC(=O)[C@H](Cc2ccc(-c3ccccc3)cc2)NC(=O)[C@H](C(C)C)NC(=O)[C@H](Cc2c[nH]c3ccccc23)NC(=O)[C@H](CC(=O)O)NC(=O)[C@H](Cc2ccc(O)cc2)NC(=O)[C@H](CCC(N)=O)NC(=O)CSC[C@@H](C(=O)NCC(N)=O)NC(=O)[C@H](CO)NC(=O)[C@H](C(C)C)NC1=O` [Example 1286] ({CH2CO}-QYDWV[Bip]E[NMeA][NMeF]RLVSCG-NH2; thioether N-14), 0.75 µM.
Under `CC(C)C[C@@H]1NC(=O)CSC[C@@H](C(=O)NCC(N)=O)NC(=O)[C@H](CO)NC(=O)[C@H](C(C)C)NC(=O)[C@H](CC(C)C)NC(=O)[C@H](CCCNC(=N)N)NC(=O)[C@H](Cc2ccccc2)N(C)C(=O)[C@H](C)N(C)C(=O)[C@H](CCC(=O)O)NC(=O)[C@H](Cc2ccc(-c3ccccc3)cc2)NC(=O)[C@H](C(C)C)NC(=O)[C@H](Cc2c[nH]c3ccccc23)NC(=O)[C@H](CC(=O)O)NC(=O)[C@H](Cc2ccc(O)cc2)NC1=O` [Example 1287] ({CH2CO}-LYDWV[Bip]E[NMeA][NMeF]RLVSCG-NH2; thioether N-14) stands 0.13 µM; under `CC(C)C[C@@H]1NC(=O)[C@H](CCCNC(=N)N)NC(=O)[C@H](Cc2ccccc2)N(C)C(=O)[C@H](C)N(C)C(=O)[C@H](CCC(=O)O)NC(=O)[C@H](Cc2ccc(-c3ccccc3)cc2)NC(=O)[C@H](C(C)C)NC(=O)[C@H](Cc2c[nH]c3ccccc23)NC(=O)[C@H](CC(=O)O)NC(=O)[C@H](Cc2ccc(O)cc2)NC(=O)[C@H](Cc2cnc[nH]2)NC(=O)CSC[C@@H](C(=O)NCC(N)=O)NC(=O)[C@H](CO)NC(=O)[C@H](C(C)C)NC1=O` [Example 1288] ({CH2CO}-HYDWV[Bip]E[NMeA][NMeF]RLVSCG-NH2; thioether N-14), 0.08 µM.
With `CC(C)C[C@@H]1NC(=O)CSC[C@@H](C(=O)NCC(N)=O)NC(=O)[C@H](CO)NC(=O)[C@H](C(C)C)NC(=O)[C@H](CC(C)C)NC(=O)[C@H](CCN)NC(=O)[C@H](Cc2ccccc2)N(C)C(=O)[C@H](C)N(C)C(=O)[C@H](CCCNC(=N)N)NC(=O)[C@H](Cc2ccc(-c3ccccc3)cc2)NC(=O)[C@H](C(C)C)NC(=O)[C@H](Cc2c[nH]c3ccccc23)NC(=O)[C@H](CC(=O)O)NC(=O)[C@H](Cc2ccc(O)cc2)NC1=O` [Example 1289] ({CH2CO}-LYDWV[Bip]R[NMeA][NMeF][Dab]LVSCG-NH2; thioether N-14), the IC50 came out at 0.17 µM.
